{"source": "paper PMC6468293", "about": "“Double autoinhibition mechanism of signal transduction ATPases with numerous domains (STAND) with a tetratricopeptide repeat sensor” (Nucleic Acids Research, 2019)", "molecules": {"B1": {"name": "His6-tagged MalT (Escherichia coli maltose system regulator), wild type (natural protein, E. coli, UniProt P06993 1-901, looked up)", "chain": "MLIPSKLSRPVRLDHTVVRERLLAKLSGANNFRLALITSPAGYGKTTLISQWAAGKNDIGWYSLDEGDNQQERFASYLIAAVQQATNGHCAICETMAQKRQYASLTSLFAQLFIELAEWHSPLYLVIDDYHLITNPVIHESMRFFIRHQPENLTLVVLSRNLPQLGIANLRVRDQLLEIGSQQLAFTHQEAKQFFDCRLSSPIEAAESSRICDDVSGWATALQLIALSARQNTHSAHKSARRLAGINASHLSDYLVDEVLDNVDLATRHFLLKSAILRSMNDALITRVTGEENGQMRLEEIERQGLFLQRMDDTGEWFCYHPLFGNFLRQRCQWELAAELPEIHRAAAESWMAQGFPSEAIHHALAAGDALMLRDILLNHAWSLFNHSELSLLEESLKALPWDSLLENPQLVLLQAWLMQSQHRYGEVNTLLARAEHEIKDIREDTMHAEFNALRAQVAINDGNPDEAERLAKLALEELPPGWFYSRIVATSVLGEVLHCKGELTRSLALMQQTEQMARQHDVWHYALWSLIQQSEILFAQGFLQTAWETQEKAFQLINEQHLEQLPMHEFLVRIRAQLLWAWARLDEAEASARSGIEVLSSYQPQQQLQCLAMLIQCSLARGDLDNARSQLNRLENLLGNGKYHSDWISNANKVRVIYWQMTGDKAAAANWLRHTAKPEFANNHFLQGQWRNIARAQILLGEFEPAEIVLEELNENARSLRLMSDLNRNLLLLNQLYWQAGRKSDAQRVLLDALKLANRTGFISHFVIEGEAMAQQLRQLIQLNTLPELEQHRAQRILREINQHHRHKFAHFDENFVERLLNHPEVPELIRTSPLTQREWQVLGLIYSGYSNEQIAGELEVAATTIKTHIRNLYQKLGVAHRQDAVQHAQQLLKMMGYGV", "notes": "MalT, E. coli, His-tagged version encoded by pOM206 (pET24a(+) derivative); Purified in two buffers (with ATP/KCl; or K3 citrate without nucleotide) to serve as control for the variants; Details of the plasmid are in the Supplementary Materials and Methods; also called wt MalT; wild-type MalT; source: E. coli pop8012 (a BL21 ΔmalT strain) with pOM206, purified (nickel-agarose chromatography, …)"}, "B2": {"name": "His6-tagged MalT^H562C (natural protein, E. coli, UniProt P06993 1-901, looked up)", "chain": "B1 chain with H562C", "notes": "MalT, E. coli, His-tagged, pOM206 derivative; source: E. coli pop8012 (a BL21 ΔmalT strain) with a pOM206 derivative, purified (nickel-agarose chromatography, Superdex 200)"}, "B3": {"name": "His6-tagged MalT^M96C (natural protein, E. coli, UniProt P06993 1-901, looked up)", "chain": "B1 chain with M96C", "notes": "as for B2"}, "B4": {"name": "His6-tagged MalT^M96T (natural protein, E. coli, UniProt P06993 1-901, looked up)", "chain": "B1 chain with M96T", "notes": "MalT, E. coli, His-tagged, pOM206 derivative; About 20% aggregated after purification without nucleotide; concentration was corrected for this; also called M96T variant"}, "B5": {"name": "His6-tagged MalT^M96C,H562C (natural protein, E. coli, UniProt P06993 1-901, looked up)", "chain": "B1 chain with M96C, H562C", "notes": "as for B2"}}, "key": {"[1]": {"biological_target": "T1, PH0952ΔN (Pyrococcus horikoshii, UniProt O58663)", "T1 construct": "gene PH0952; NBD 102-262, HD 263-316, WHD 317-393, arm 394-496, TPR sensor 497-748; from E. coli Rosetta (DE3), intein tag cleaved; monomeric resting form", "T1 sequence (O58663 entry or part of it, stated change not applied)": "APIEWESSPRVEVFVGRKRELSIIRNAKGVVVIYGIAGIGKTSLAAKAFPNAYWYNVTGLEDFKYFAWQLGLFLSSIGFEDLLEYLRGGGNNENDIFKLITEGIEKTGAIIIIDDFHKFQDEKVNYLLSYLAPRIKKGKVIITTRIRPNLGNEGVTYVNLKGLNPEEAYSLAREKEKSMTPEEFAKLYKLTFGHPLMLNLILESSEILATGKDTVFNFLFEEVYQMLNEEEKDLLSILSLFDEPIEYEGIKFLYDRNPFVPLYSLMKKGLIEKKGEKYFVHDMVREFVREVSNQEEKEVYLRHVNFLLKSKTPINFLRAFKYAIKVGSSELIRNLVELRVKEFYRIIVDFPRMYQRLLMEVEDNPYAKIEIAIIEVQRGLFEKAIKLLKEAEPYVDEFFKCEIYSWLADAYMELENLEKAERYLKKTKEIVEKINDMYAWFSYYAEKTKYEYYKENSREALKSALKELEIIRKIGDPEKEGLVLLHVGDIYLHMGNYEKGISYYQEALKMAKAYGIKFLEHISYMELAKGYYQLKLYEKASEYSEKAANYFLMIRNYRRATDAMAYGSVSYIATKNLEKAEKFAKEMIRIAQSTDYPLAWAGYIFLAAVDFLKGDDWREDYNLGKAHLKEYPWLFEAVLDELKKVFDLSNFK", "experiment": "X-ray crystal structure", "details": "3.4 Å; ADP present in purification buffer; nucleotide-binding site of the NOD"}, "[2]": {"biological_target": "T2, MalT (Escherichia coli, UniProt P06993, M96C)", "T2 construct": "full-length, His6-tagged (pOM206, pET24a(+) derivative), purified from E. coli BL21 ΔmalT", "T2 sequence (P06993 whole entry M96C)": "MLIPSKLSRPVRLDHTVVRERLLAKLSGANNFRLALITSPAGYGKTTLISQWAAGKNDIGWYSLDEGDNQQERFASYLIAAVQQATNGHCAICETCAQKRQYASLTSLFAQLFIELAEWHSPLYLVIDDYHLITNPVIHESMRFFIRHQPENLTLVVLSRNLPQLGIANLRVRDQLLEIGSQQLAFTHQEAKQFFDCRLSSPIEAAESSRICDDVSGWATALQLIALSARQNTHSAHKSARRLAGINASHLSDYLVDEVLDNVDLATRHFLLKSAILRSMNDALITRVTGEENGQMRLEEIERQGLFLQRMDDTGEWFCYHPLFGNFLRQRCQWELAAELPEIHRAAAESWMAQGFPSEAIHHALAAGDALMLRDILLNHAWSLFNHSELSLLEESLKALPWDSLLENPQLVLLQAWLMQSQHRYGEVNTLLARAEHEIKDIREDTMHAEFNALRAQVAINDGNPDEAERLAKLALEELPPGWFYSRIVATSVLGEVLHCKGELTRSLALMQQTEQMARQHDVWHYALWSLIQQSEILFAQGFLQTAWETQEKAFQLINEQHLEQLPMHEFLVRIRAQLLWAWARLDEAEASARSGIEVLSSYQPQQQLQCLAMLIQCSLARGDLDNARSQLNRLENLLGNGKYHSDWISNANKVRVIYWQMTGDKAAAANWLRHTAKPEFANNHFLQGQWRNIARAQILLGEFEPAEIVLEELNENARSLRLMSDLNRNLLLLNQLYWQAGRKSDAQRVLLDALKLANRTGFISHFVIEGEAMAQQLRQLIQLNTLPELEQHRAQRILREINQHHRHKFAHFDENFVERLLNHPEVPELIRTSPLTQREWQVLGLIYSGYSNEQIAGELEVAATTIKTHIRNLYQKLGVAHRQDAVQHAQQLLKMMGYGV", "experiment": "analytical size-exclusion chromatography (multimerization)", "assay_type": "biochemical", "details": "reducing conditions"}, "[3]": {"biological_target": "T3, MalT (Escherichia coli, UniProt P06993, R171E)", "T3 construct": "full-length, His6-tagged (pOM206, pET24a(+) derivative), purified from E. coli BL21 ΔmalT", "T3 sequence (P06993 whole entry R171E)": "as the sequence (P06993 whole entry M96C) above, with C96M, R171E counted along it", "experiment": "limited proteolysis (proteinase K)", "assay_type": "biochemical", "details": "22 mM maltotriose; 0.44 mM ATP or ADP; pH 8.0, 25 °C"}, "[4]": {"biological_target": "T4, MalT (Escherichia coli, UniProt P06993, M96T/R171E)", "T4 construct": "full-length, His6-tagged (pOM206, pET24a(+) derivative), purified from E. coli BL21 ΔmalT", "T4 sequence (P06993 whole entry M96T/R171E)": "as the sequence (P06993 whole entry M96C) above, with C96T, R171E counted along it", "experiment": "limited proteolysis (proteinase K)", "assay_type": "biochemical", "details": "22 mM maltotriose; 0.44 mM ATP or ADP; pH 8.0, 25 °C"}, "[5]": {"biological_target": "T5, MalT (Escherichia coli, UniProt P06993, H562C)", "T5 construct": "full-length, His6-tagged (pOM206, pET24a(+) derivative), purified from E. coli BL21 ΔmalT", "T5 sequence (P06993 whole entry H562C)": "as the sequence (P06993 whole entry M96C) above, with C96M, H562C counted along it", "experiment": "analytical size-exclusion chromatography (multimerization)", "assay_type": "biochemical", "details": "reducing conditions"}, "[6]": {"biological_target": "T6, MalT (Escherichia coli, UniProt P06993)", "T6 construct": "full-length, His6-tagged (pOM206, pET24a(+) derivative), purified from E. coli BL21 ΔmalT", "experiment": "analytical size-exclusion chromatography (multimerization) and limited proteolysis", "assay_type": "biochemical", "details": "with ATP; inducer; pH 8.0"}, "[7]": {"biological_target": "the molecule itself", "experiment": "SEC; analytical Superdex 200 PC3.2/30, room temperature; reducing conditions; with the inducer maltotriose (Supplementary Figure S9)"}, "[8]": {"biological_target": "the molecule itself", "experiment": "SEC; analytical Superdex 200, room temperature; Tris-HCl 50 mM pH 8.0, 10% sucrose, 0.033 M K3 citrate, 10 mM Mg acetate, 0.1 mM EDTA, 1 mM DTT, 0.1 mM ADP; no maltotriose; high protein concentration (54 μM)"}}, "note": "Changes are numbered by the printed parent chain. Names and notes keep the numbering of the source.", "data": [{"molecule": "Nc1ncnc2c1ncn2[C@@H]1O[C@H](COP(=O)(O)OP(=O)(O)O)[C@@H](O)[C@H]1O", "note": "[ADP]", "values": [{"measurement": "X-ray crystal structure", "setting": "[1]", "value": "a ligand was clearly visible in the experimental electron density map"}]}, {"molecule": "OC[C@H]1O[C@H](O[C@H]2[C@H](O)[C@@H](O)[C@@H](O[C@H]3[C@H](O)[C@@H](O)C(O)O[C@@H]3CO)O[C@@H]2CO)[C@H](O)[C@@H](O)[C@@H]1O", "note": "(some centres unmarked) [maltotriose]", "values": [{"measurement": "analytical size-exclusion chromatography (multimerization)", "setting": "[2]", "value": "the four proteins were monomeric in the absence of the inducer, maltotriose"}, {"measurement": "limited proteolysis (proteinase K)", "setting": "[3]", "value": "underwent the same maltotriose-induced conformational changes as MalT"}, {"measurement": "limited proteolysis (proteinase K)", "setting": "[4]", "value": "underwent the same maltotriose-induced conformational changes as MalT"}, {"measurement": "analytical size-exclusion chromatography (multimerization)", "setting": "[5]", "value": "the four proteins were monomeric in the absence of the inducer, maltotriose"}, {"measurement": "analytical size-exclusion chromatography (multimerization) and limited proteolys", "setting": "[6]", "value": "responded to its presence by multimerizing to the same extent"}]}, {"molecule": "B1", "values": [{"measurement": "binding result", "setting": "[7]", "value": "binds"}]}, {"molecule": "B2", "values": [{"measurement": "binding result", "setting": "[7]", "value": "binds"}]}, {"molecule": "B3", "values": [{"measurement": "binding result", "setting": "[7]", "value": "binds"}]}, {"molecule": "B4", "values": [{"measurement": "binding result", "setting": "[8]", "value": "binds"}]}, {"molecule": "B5", "values": [{"measurement": "binding result", "setting": "[7]", "value": "binds"}]}]}
